Like-named read-outs stand apart in the source and are kept apart here.
Legend:
[1] = tested on: HIV-1 long terminal repeat (LTR)-driven luciferase reporter gene in FlipIn.FM HEK293 cells; assay: cells; format: cell-based; conditions: for EC50: Human immunodeficiency virus 1, HEK293, HIV-LTR driven latent reporter, 11-point, 2-fold dilution series, highest concentration 40 μM, read-out: Latent reporter Av EC50; for fold change in HIV-1 gene expression over the unstimulated baseline: FlipIn.FM model, alone at 10 μM and in combination, 48 hrs post treatment
Method: FIG. 44. […] The FlipIn.FM model of HIV-1 latency was treated with JQ1 (+) and DP#14 (Compound 7) alone at 10 μM and in combination, and the HIV-1 gene expression measured 48 hrs post treatment. Error bars represent standard deviation of n=3 experiments. OPTI represents media alone, without DP#14.
FIG. 46. […] The FlipIn.FM model of HIV-1 latency was treated with PFI-1 and DP#14 alone at 10 μM and in combination, and the HIV-1 gene expression measured 48 hrs post treatment. Error bars represent standard deviation of n=3 experiments. OPTI represents media alone, without DP#14.
Explicitly, HEK293 derived FlipIn-FM and FlipIn-RV dual reporter cells each include a single stable HIV-1 long terminal repeat (LTR)-driven luciferase reporter genes, with a second complimentary non-HIV (off-target) luciferase reporter. These cell lines model post integration latency and read-through transcription by expressing a low level of HIV-1 Tat protein via a native Internal Ribosome Entry Site (IRES) found within Tat, from a chimeric cellular-tat gene cassette. FlipIn-FM and FlipIn-RV clones were chosen for low basal levels of LTR activity and high responsiveness to Tat as well as many Latency Reversing Agents (LRAs).
The dual reporter cell lines contain three stably integrated constructs that together allow for detection of novel LRAs, capable of potent and specific HIV reactivation. The FlipIn.FM line contains a proviral LTR-driven nef/CBR reporter fusion gene, allowing for detection of viral gene expression. A second CMV-driven CBG luciferase reporter allows for detection of off target drug effects, including non-specific activation and drug toxicity. The third construct contains the first coding exon of HIV-1 tat, within human Growth Hormone (hGH) as a chimeric gene, expressing HIV-1 Tat protein from an IRES mechanism that underlies the tat exon. This construct models read-through transcription and the low level of Tat protein expression that occurs during post integration latency. The counter screening reverse cell line, FlipIn.RV, contains the same three components with the Click Beetle Luciferase genes in the opposite orientation (LTR-CBG and CMV-CBR) for counter screening.
Compounds were evaluated in an 11-point titration using normal CMV-CBG/LTR-CBR reporter cell line and an 11 point reverse CMV-CBR/LTR-CBG reporter cell line.
The FlipIn cell lines were therefore designed with a dual purpose, to detect novel compounds that reactivate HIV-1 and to also screen out compounds that behaved in a largely non-specific manner. To achieve the latter, the cell lines contain an “off target” reporter gene construct, driven by the unrelated CMV-IE promoter, that allows for the detection of drug mediated off target effects including global gene activation as well as possible toxicity.
The HIV-LTR driven latent reporter gene identifies the HIV-specific activation, and the term “global reporter” is interchangeable with “off target reporter” and refers to the unrelated CMV-IE promoter driven reporter gene, which is used as a surrogate for global gene activation. […] The highest concentration tested here was 40 μM.

[2] = tested on: latent HIV in resting memory CD4+ T cells isolated by leukapheresis from HIV+ donors on antiretroviral therapy; format: cell-based, HIV-1; conditions: 72 hrs
Source text: FIG. 41a. […] Resting memory CD4+ T cells isolated by leukapheresis from HIV+ donors on antiretroviral therapy were reactivated for 72 hrs using known LRAs including vorinostat (Vor) also known as suberanilohydroxamic acid, another hydroxamic acid panobinostat (Pan), and the depsipeptide Romidepsin (Rom) that are all HDACi, together with JQ1 (+) which is a thienotriazolodiazepine known to inhibit the BET family of bromodomain proteins including BRD2, BRD3, and BRD4, and compared with compounds according to the present invention DP#6 (Compound 41), DP#14 (Compound 7), and DP#16 (Compound 64).
FIG. 41c. […] Resting memory CD4+ T cells isolated by leukapheresis from HIV+ donors on antiretroviral therapy were reactivated for 72 hrs using known (vorinostat, Vor; panobinostat, Pan; romidepsin, Rom; and JQ1 (+)) and compounds according to the present invention (DP#6 (Compound 41), DP#14 (Compound 7), and DP#16 (Compound 64)).
FIG. 42c. […] Resting memory CD4+ T cells isolated by leukapheresis from HIV+ donors on antiretroviral therapy were reactivated for 72 hrs using known (JQ1 (+)) and compounds according to the present invention (DP#14 (Compound 7)) alone and in combination, and HIV-1 RNA detected through qPCR.
Total peripheral blood mononuclear cells (PBMC) were stored frozen in liquid nitrogen and prior to use, vials of frozen cells (0.5×10^8 PBMCs/vial or 1×10^8 PBMCs/vial) were quick thawed in a 42° C. water bath. Cells were promptly transferred to a 15 mL tube with 5 mL FBS dropwise then, then 6 mL of RF10 was added. Cells were pelleted at 300 g for 10 min at room temperature. Following aspiration, the cells were resuspended in RF10, pooled into a 50 mL tube which was topped up with RF10. PBMC were pelleted again at 300 g for 10 min at room temperature. Following aspiration, the cells were resuspended in PBS(−/−) and counted. CD4+ T cells were then isolated from 4×10^8 PBMCs that were pelleted and resuspended in PBS(−/−) at 1×10^7 cells/40 μL. 10 μL of CD4+ T cell Biotin-Antibody cocktail (Miltenyi Biotec) for every 1×10^7 cells was added and the mix refrigerated for 5 min. 30 μL of PBS(−/−) for every 1×10^7 cells was added, and 20 μL of the CD4+ T cell MicroBeads for every 1×10^7 cells was added and the mix refrigerated for 10 min. Unlabelled CD4+ T cells were then isolated by negative selection using magnetic separation. CD4+ T cells were then counted before being diluted to 4×10^6 cells/500 μL in RF10 for each condition and seeded into a 48 well plate.
Latent HIV was reactivated in the presence of the HIV integrase inhibitor Raltagravir (Ral) to prevent any further rounds of infection. Ral was made to [2 μM] in RF10+IL-2 (2 U/mL), and used to make 1 mL preparation of each drug up at [×2]. 500 μL of the [×2 Ral/IL-2/drug] was then added to the appropriate wells containing cells. Cells were transported to PC3 and incubated for 72 hrs.
Following reactivation, 800 μL of cell supernatant was transferred to labeled 1.5 mL screwcap tubes, pelletted at 800 g for 10 min then transferred to a second set of tubes and frozen for possible use at a later date. 800 μL of PBS(−/−) was added to each well to mix the cells and 50 μL of cells transferred to another set of tubes for live/dead staining and flow cytometry. Cells were pelleted at 400 g for 10 min, the media aspirated and cells resuspended in 100 μL of a [×1] APC-cy7 live/dead stain (Life technologies).

[3] = tested on: HIV-1 gene expression in J.Lat10.6 latently infected T-cell line; assay: cells; format: cell-based; conditions: for IC50: Human immunodeficiency virus 1, J-Lat 10.6, 48 h, read-out: IC50 for reactivation of HIV-1 gene expression; for percent of the cells treated with reactivated HIV-1 gene expression: J.Lat10.6 model, alone at 10 μM and in combination, 48 hrs post treatment
Method: The J.Lat10.6 latently infected T-cell line was treated with 4 compounds of the present invention, DP#6 (Compound 41), DP#14 (Compound 7), DP#18 (Compound 65), and DP#19 (Compound 73) and reactivated for 48 hrs. HIV-1 reactivation was measured by flowcytometry for GFP expression. Error bars represent standard deviation of n=3 experiments.
FIG. 45. […] The J.Lat10.6 model of HIV-1 latency was treated with JQ1 (+) and DP#14 (Compound 7) alone at 10 μM and in combination, and the HIV-1 gene expression measured 48 hrs post treatment. Error bars represent standard deviation of n=3 experiments. OPTI represents media alone, without DP#14.
FIG. 47. […] The J.Lat10.6 model of HIV-1 latency was treated with PFI-1 and DP#14 alone at 10 μM and in combination, and the HIV-1 gene expression measured 48 hrs post treatment. Error bars represent standard deviation of n=3 experiments. OPTI represents media alone, without DP#14.
Compounds were also evaluated in a dose ranging titration with HIV latently infected cell lines (J.Lat 6.3 and 10.6). The specificity of the selected compounds in these cell line models, were measured by inserting a CMV-DS.Red reporter into these cells to co-ordinately measure HIV specific LTR-Green fluorescent protein and non-specific DS.Red expression during FACS analysis.
The J.Lat model of HIV-1 latency is a well-established model used widely and is described in detail in the following paper:
HIV reproducibly establishes a latent infection after acute infection of T cells in vitro, Eric Verdin et al, The EMBO Journal Vol. 22 No. 8 pp 1868-1877, 2003

J.Lat10.6 T-cell line = assay: Dose dependent toxicity in the J.Lat model; format: cell-based; conditions: for concentration above which notable toxicity: dose dependent toxic effect
[4] = normalized between unstimulated baseline and PMA positive control as 100%, concentration not given

SMILES | EC50 [1] [nM] | IC50 [3] [nM] | induction of HIV-1 gene expression, % of the normalized value [2, 4] [%] | also measured
Cc1cnc(NC(=O)CCCOc2ccccc2)s1 [Compound 41] | 14000 | ~16500 |  | induction of HIV-1 gene expression, % of the normalized value ([2]; at 5 μM, normalized between unstimulated baseline and PMA as 100%): 25%; dose dependent toxicity (J.Lat10.6 T-cell line; dosed as high as 40 μM): no such toxicity
Cc1ccc(N2CCN(C(=O)Nc3ncc(Cl)s3)CC2)cc1Cl [Compound 64] | 220 |  |  | activation of HIV-1 gene expression in leukapheresis samples ([2]; at 100 nM, n=4 or n=5 donors): activation in only one patient
Cc1ccc(N2CCN(C(=O)Nc3ncc(C#N)s3)CC2)cc1Cl [Compound 65] | 330 | 650 |  | concentration above which notable toxicity (J.Lat10.6 T-cell line): above 1.25 μM
Cc1cnc(NC(=O)N2CCN(c3cnc(Cl)c(Cl)c3)CC2)s1 [Compound 73] | 280 | < 110 |  | concentration above which notable toxicity (J.Lat10.6 T-cell line): > 156 nM
Cc1sc2c(c1C)C(c1ccc(Cl)cc1)=N[C@@H](CC(=O)OC(C)(C)C)c1nnc(C)n1-2 [JQ1 (+), reference compound] |  |  | 39 | fold change in HIV-1 gene expression over the unstimulated baseline [1]: 12.8 fold; percent of the cells treated with reactivated HIV-1 gene expression [3]: 22.8%
COc1ccccc1S(=O)(=O)Nc1ccc2c(c1)CN(C)C(=O)N2 [PFI-1, reference compound] |  |  |  | fold change in HIV-1 gene expression over the unstimulated baseline [1]: 3.6 fold; percent of the cells treated with reactivated HIV-1 gene expression [3]: 20.6%
Cc1[nH]c2ccccc2c1CCNCc1ccc(/C=C/C(=O)NO)cc1 [Panabinostat, reference compound] |  |  | 57 | 
C/C=C1\NC(=O)[C@H]2CSSCC/C=C/[C@H](CC(=O)N[C@H](C(C)C)C(=O)N2)OC(=O)[C@H](C(C)C)NC1=O [Romidepsin, reference compound] |  |  | 67 | 
O=C(CCCCCCC(=O)Nc1ccccc1)NO [Vorinostat, suberanilohydroxamic acid, reference compound] |  |  | 58 | 
